Values quoted from earlier work, collected in patent publication US20150216948A1, “CYTOCHROME P450 SUICIDE GENE SYSTEM” (priority 2012, published 2015).

Settings: 5-day infusion regimens, patients with lung and liver cancers

Structure (SMILES): CC(O)CCC(=O)c1ccoc1 (stereo not shown) [4-IPO, 1-[3-furyl]-4-hydroxypentanone]
- serum concentrations, highly efficient for killing human P427 mutant CYP4B1 transgenic human cells within 72 h: up to 90 μM
